Data as given in patent US4154932A (priority 1977, dated 1979).
Read-outs that look alike come from different tables or passages of the source.

Assays:
[1] = test system: phenylquinone induced writhings; experiment: animal or person; settings: for ED50: Mus musculus
Experimental: In vivo testing was conducted on many of the compounds of the present invention.

[2] = test system: Straub Tail induced by oxymorphone; experiment: Antagonism of oxymorphone-induced Straub Tail (antagonist activity); format: in vivo, mouse; settings: for ED50: Mus musculus; for Oxymorphone-Induced Straub Tail po/sc: ratio of ED50 po/sc
Experimental: ^2 Antagonism of Straub Tail induced by oxymorphone (2 mg/kg, s.c.) i

[3] = Analgetic activity, overall comparison of Table 2; format: in vivo
[4] = test system: withdrawal jumping (abstinence); experiment: Primary physical dependence test in mice (withdrawal jumping on naloxone challenge); settings: repeated sc injections for two days
Experimental: (§1) Buprenorphine and (-)XI were tested for physical dependence liability in mice. […] The compounds were then tested as substitutes for morphine in withdrawn morphine-dependent mice.

[5] = Physical dependence liability in man (predicted from mouse models); settings: prediction from the mouse test model
Experimental: as §1

[6] = test system: Rat Writhing; experiment: Rat Writhing (analgetic activity); format: in vivo; settings: Table 2; for ED50: Rattus norvegicus; for Rat Writhing po/sc: ratio of ED50 po/sc
[7] = test system: withdrawn morphine-dependent mice; experiment: Substitution for morphine in withdrawn morphine-dependent mice
Experimental: as §1

[8] = test system: opioids, oxymorphone and morphine; experiment: Antagonist activity, overall comparison of Table 3; format: in vivo
[9] = test system: Cough Response; experiment: animal or person; format: in vivo, dog; settings: for ED50: Canis lupus familiaris
Excerpt: Comparative Antitussive Effects of (-)-XI, Butorphanol and
Morphine Sulfate in the Unanesthetized Dog

[10] = test system: Morphine Antagonism Rat Tail Flick; experiment: Morphine antagonism, Rat Tail Flick (antagonist activity); format: in vivo; settings: Table 3; for ED50: Rattus norvegicus; for Morphine Antagonism Rat Tail Flick po/sc: ratio of ED50 po/sc
[11] = test system: Rat Vocalization; experiment: Rat Vocalization (analgetic activity); format: in vivo; settings: Table 2; for ED50: Rattus norvegicus; for Rat Vocalization po/sc: ratio of ED50 po/sc
[12] = sc, read-out: Agonist Activity, Phenylquinone Writhing ED50
[13] = sc, mice, Table 1, oxymorphone 2 mg/kg, s.c., read-out: Antagonist Activity, Oxymorphone Straub Tail ED50
[14] = central, read-out: Analgetic activity ED50, Intraventricular
[15] = po, read-out: Analgetic activity ED50, Mouse Writhing po
[16] = sc, read-out: Analgetic activity ED50, Mouse Writhing sc
[17] = po, read-out: Analgetic activity ED50, Rat Writhing po
[18] = sc, read-out: Analgetic activity ED50, Rat Writhing sc
[19] = po, Table 3, read-out: Antagonist activity ED50, Oxymorphone-Induced Straub Tail po
[20] = sc, Table 3, read-out: Antagonist activity ED50, Oxymorphone-Induced Straub Tail sc
[21] = po, unanesthetized dog, read-out: Oral antitussive ED50
[22] = sc, unanesthetized dog, read-out: Antitussive ED50
[23] = po, read-out: Antagonist activity ED50, Morphine Antagonism Rat Tail Flick po
[24] = sc, read-out: Antagonist activity ED50, Morphine Antagonism Rat Tail Flick sc
[25] = po, read-out: Analgetic activity ED50, Rat Vocalization po
[26] = sc, read-out: Analgetic activity ED50, Rat Vocalization sc
[27] = ratio of ED50 sc/intraventricular, Table 2

Oc1ccc2c(c1)[C@]13CCN(CC4CCC4)[C@H](C2)[C@@H]1CCOC3 (racemic) [(±)-XIV, 17-Cyclobutylmethyl-3-hydroxy-6-oxamorphinan]
ED50 [1, 12]: 0.015 mg/kg | ED50 [2, 13]: ~6 mg/kg

COc1ccc2c(c1)[C@]13CCN(CC4CC4)[C@H](C2)[C@@H]1CCOC3 [(-)-X, (-)-17-Cyclopropylmethyl-3-methoxy-6-oxamorphinan]
ED50 [1, 12]: 0.14 mg/kg | ED50 [2, 13]: ~6 mg/kg

Oc1ccc2c(c1)[C@]13CCN(CC4CC4)[C@H](C2)[C@@H]1CCOC3 [(-)-XI, (-)-17-Cyclopropylmethyl-3-hydroxy-6-oxamorphinan]
Oral/parenteral analgetic potency ratio, comparison [3]: comparable to buprenorphine and approximately ten times better than butorphanol | Oral analgetic potency, comparison ([3]; oral): markedly better than butorphanol and equivalent to buprenorphine | Withdrawal jumping (primary physical dependence) [4]: did not exhibit withdrawal jumping (abstinence) | ED50 [1, 14]: 0.0012 mg/kg | ED50 [1, 15]: 0.3 mg/kg | ED50 [1, 12]: 0.028 mg/kg | ED50 [1, 16]: 0.028 mg/kg | Mouse Writhing po/sc ([1]; mouse, in vivo): 11 | sc/I. Vent. ([1]; mouse, in vivo, sc): 23 | Predicted physical dependence liability in man [5]: nil or of a low order | ED50 [6, 17]: 0.22 mg/kg | ED50 [6, 18]: 0.021 mg/kg | Rat Writhing po/sc [6]: 11 | Substitution for morphine ([7]; 3 to 54 mg/kg sc): no evidence of substitution for morphine | Oral/parenteral potency ratio relative to antagonist activity, comparison [8]: superior to butorphanol and about equal to that of buprenorphine | Antagonist potency relative to butorphanol ([8]; blocking the effects of oxymorphone and morphine): about twice as potent as butorphanol | ED50 [2, 13]: 0.44 mg/kg | ED50 [2, 19]: 14 mg/kg | ED50 [2, 20]: 0.44 mg/kg | Oxymorphone-Induced Straub Tail po/sc ([2]; Table 3): 32 | Percent Inhibition of Cough Response ([9]; 0.005 mg/kg sc, 15 min): 7% | Percent Inhibition of Cough Response ([9]; 0.005 mg/kg sc, 30 min): 52% | Percent Inhibition of Cough Response ([9]; 0.005 mg/kg sc, 60 min): 15% | Percent Inhibition of Cough Response ([9]; 0.005 mg/kg sc, 120 min): 41% | Percent Inhibition of Cough Response ([9]; 0.005 mg/kg sc, 180 min): 41% | Percent Inhibition of Cough Response ([9]; 0.005 mg/kg sc, 240 min): 37% | Percent Inhibition of Cough Response ([9]; 0.005 mg/kg sc, 300 min): 33% | Percent Inhibition of Cough Response ([9]; 0.01 mg/kg sc, 15 min): 38% | Percent Inhibition of Cough Response ([9]; 0.01 mg/kg sc, 30 min): 68% | Percent Inhibition of Cough Response ([9]; 0.01 mg/kg sc, 60 min): 86% | Percent Inhibition of Cough Response ([9]; 0.01 mg/kg sc, 120 min): 98% | Percent Inhibition of Cough Response ([9]; 0.01 mg/kg sc, 180 min): 62% | Percent Inhibition of Cough Response ([9]; 0.01 mg/kg sc, 240 min): 50% | Percent Inhibition of Cough Response ([9]; 0.01 mg/kg sc, 300 min): 24% | Percent Inhibition of Cough Response ([9]; 0.02 mg/kg sc, 15 min): 90% | Percent Inhibition of Cough Response ([9]; 0.02 mg/kg sc, 30 min): 99% | Percent Inhibition of Cough Response ([9]; 0.02 mg/kg sc, 60 min): 88% | Percent Inhibition of Cough Response ([9]; 0.02 mg/kg sc, 120 min): 70% | Percent Inhibition of Cough Response ([9]; 0.02 mg/kg sc, 180 min): 67% | Percent Inhibition of Cough Response ([9]; 0.02 mg/kg sc, 240 min): 67% | Percent Inhibition of Cough Response ([9]; 0.02 mg/kg sc, 300 min): 64% | Percent Inhibition of Cough Response ([9]; 0.05 mg/kg sc, 15 min): 100% | Percent Inhibition of Cough Response ([9]; 0.05 mg/kg sc, 30 min): 100% | Percent Inhibition of Cough Response ([9]; 0.05 mg/kg sc, 60 min): 100% | Percent Inhibition of Cough Response ([9]; 0.05 mg/kg sc, 120 min): 100% | Percent Inhibition of Cough Response ([9]; 0.05 mg/kg sc, 180 min): 100% | Percent Inhibition of Cough Response ([9]; 0.05 mg/kg sc, 240 min): 100% | Percent Inhibition of Cough Response ([9]; 0.05 mg/kg sc, 300 min): 100% | ED50 [9, 21]: 0.04 mg/kg | ED50 [9, 22]: 0.006 mg/kg | Antitussive potency relative to butorphanol ([9]; dog, in vivo, po): 8 times | Antitussive potency relative to morphine sulfate ([9]; dog, in vivo, po): 16 times | Antitussive potency relative to butorphanol ([9]; dog, in vivo, sc): 1.7 times | Antitussive potency relative to morphine sulfate ([9]; dog, in vivo, sc): approximately 7 times | Duration of antitussive activity ([9]; dog, in vivo, sc): significantly longer duration of activity than either butorphanol or morphine sulfate | Antitussive activity ([9]; subcutaneous, unanesthetized dog): potent antitussive agent | ED50 [10, 23]: ~3 mg/kg | ED50 [10, 24]: 0.26 mg/kg | Morphine Antagonism Rat Tail Flick po/sc [10]: 12 | ED50 [11, 25]: 0.11 mg/kg | ED50 [11, 26]: 0.006 mg/kg | Rat Vocalization po/sc [11]: 18

CO[C@@]12CC[C@@]3(C[C@@H]1[C@](C)(O)C(C)(C)C)[C@H]1Cc4ccc(O)c5c4[C@@]3(CCN1CC1CC1)[C@H]2O5 [Buprenorphine]
Withdrawal jumping (primary physical dependence) [4]: did not exhibit withdrawal jumping (abstinence) | ED50 [1, 14]: 0.0004 mg/kg | ED50 [1, 15]: 0.27 mg/kg | ED50 [1, 16]: 0.021 mg/kg | Mouse Writhing po/sc ([1]; ratio of ED50 po/sc, Table 2): 13 | sc/I. Vent. [1, 27]: 53 | Predicted physical dependence liability in man [5]: morphine-like | ED50 [6, 17]: 0.16 mg/kg | ED50 [6, 18]: 0.013 mg/kg | Rat Writhing po/sc [6]: 12 | Substitution for morphine ([7]; 1 mg/kg sc, or less): complete substitution for morphine | ED50 [2, 20]: 0.46 mg/kg | ED50 [10, 23]: 0.92 mg/kg | ED50 [10, 24]: 0.063 mg/kg | Morphine Antagonism Rat Tail Flick po/sc [10]: 15 | ED50 [11, 25]: ~0.08 mg/kg | ED50 [11, 26]: 0.005 mg/kg | Rat Vocalization po/sc [11]: ~ 16

Oc1ccc2c(c1)[C@@]13CCCC[C@@]1(O)[C@@H](C2)N(CC1CCC1)CC3 [Butorphanol]
ED50 [1, 14]: 0.0019 mg/kg | ED50 [1, 15]: 5.1 mg/kg | ED50 [1, 16]: 0.045 mg/kg | Blood-brain barrier penetration ([1]; mouse, in vivo): penetrate the blood-brain barrier more readily than either morphine or buprenorphine and to about the same degree as each other | Mouse Writhing po/sc ([1]; ratio of ED50 po/sc, Table 2): 113 | sc/I. Vent. [1, 27]: 24 | ED50 [6, 17]: 2.1 mg/kg | ED50 [6, 18]: 0.04 mg/kg | Rat Writhing po/sc [6]: 53 | ED50 [2, 19]: 55 mg/kg | ED50 [2, 20]: 0.98 mg/kg | Oxymorphone-Induced Straub Tail po/sc ([2]; Table 3): 56 | Percent Inhibition of Cough Response ([9]; 0.1 mg/kg sc, 15 min): 98% | Percent Inhibition of Cough Response ([9]; 0.1 mg/kg sc, 30 min): 96% | Percent Inhibition of Cough Response ([9]; 0.1 mg/kg sc, 60 min): 92% | Percent Inhibition of Cough Response ([9]; 0.1 mg/kg sc, 120 min): 84% | Percent Inhibition of Cough Response ([9]; 0.1 mg/kg sc, 180 min): 64% | Percent Inhibition of Cough Response ([9]; 0.1 mg/kg sc, 240 min): 41% | Percent Inhibition of Cough Response ([9]; 0.1 mg/kg sc, 300 min): 28% | ED50 [9, 21]: 0.32 mg/kg | ED50 [9, 22]: 0.01 mg/kg | ED50 [10, 23]: 22 mg/kg | ED50 [10, 24]: 0.43 mg/kg | Morphine Antagonism Rat Tail Flick po/sc [10]: 51 | ED50 [11, 25]: 0.83 mg/kg | ED50 [11, 26]: 0.012 mg/kg | Rat Vocalization po/sc [11]: 69

CN1CC[C@]23c4c5ccc(O)c4O[C@H]2[C@@H](O)C=C[C@H]3[C@H]1C5 [Morphine SO4]
ED50 [1, 14]: 0.0032 mg/kg | ED50 [1, 15]: 3.1 mg/kg | ED50 [1, 16]: 0.26 mg/kg | Mouse Writhing po/sc ([1]; mouse, in vivo): 12 | ED50 [6, 17]: 1.6 mg/kg | ED50 [6, 18]: 0.16 mg/kg | Rat Writhing po/sc [6]: 10 | Oral antitussive ED50 ([9]; dog, in vivo, po): 0.62 mg/kg | Antitussive ED50 ([9]; dog, in vivo, sc): 0.04 mg/kg | ED50 [11, 25]: 2.1 mg/kg | ED50 [11, 26]: 0.19 mg/kg | Rat Vocalization po/sc [11]: 11

C=CCN1CC[C@]23c4c5ccc(O)c4O[C@H]2C(=O)CC[C@@]3(O)[C@H]1C5 [Naloxone, reference compound]
ED50 [2, 19]: 13 mg/kg | ED50 [2, 20]: 0.09 mg/kg | Oxymorphone-Induced Straub Tail po/sc ([2]; Table 3): 144 | ED50 [10, 23]: 2.7 mg/kg | ED50 [10, 24]: 0.01 mg/kg | Morphine Antagonism Rat Tail Flick po/sc [10]: 270
